Reference: US20210219542A1, “COMPOSITIONS AND METHODS FOR STORAGE OF RED BLOOD CELLS” (THE REGENTS OF THE UNIVERSITY OF COLORADO, A BODY CORPORATE, priority 2018, published 2021)

Legend:
[1] = system: red blood cells (RBC); test: Storage hemolysis: phosphate-conjugated carbohydrates and adenylates in the supernatant fraction of stored RBCs; assay type: cell-based; conditions: RBC-AS-3 stored at 4° C.; over storage duration; FIG. 6
Protocol: RBC Storage: To ensure sterility, all storage conditions were set up and subsequently sampled in a biosafety cabinet. The RBC-AS-3 suspension was carefully removed from the bag into 3 ml aliquots inside 15 ml conical tubes. Stock concentrations (formulated in house-made AS-3) of ^13C5-Ado or d7-S1P were diluted to final concentrations of 0.1, 1, 10, and 100 μM for Ado or 1, 5, and 10 μM for S1P. Also included was a storage condition consisting of 10 Ado+5 μM S1P. […] The tubes were gently mixed and placed at 4° C. for storage. On days 2, 8, 11, 15, 22, 29, and 43, the tubes were placed back in a biosafety cabinet and 300 μl were sampled. The tubes were placed back at 4° C., and the samples were centrifuged for 10 minutes at 1500 g, 4° C. Supernatants were separated from cells and frozen until analysis (1st analysis after day 22 sampling). LC-MS Metabolomics: Metabolomics analyses were performed as previously described (Nemkov et al. (2015) Amino Acids doi:10.1007/s00726-015-2019-9; Nemkov et al. (2017) Rapid Commun. Mass Spectrom. 31, 663-673). Briefly, samples were placed on ice and diluted with 9 volumes of methanol:acetonitrile:water (5:3:2, v:v) for RBC, or with 24 volumes of methanol:acetonitrile:water (5:3:2, v:v) for supernatants. […] Samples were analyzed in randomized order with a technical mixture injected after every 15 samples to qualify instrument performance. […]

[2] = system: red blood cells (RBC); test: RBC storage in AS-3 with Ado and/or S1P, LC-MS metabolomics of cells and supernatants; assay type: cell-based; conditions: for amount of hypoxanthine in RBC and supernatants / 2,3-DPG levels / ATP production / oxidized glutathione levels / reduced glutathione levels: RBC-AS-3 stored at 4° C.; for amount of hypoxanthine in RBC and supernatants: at least up to a concentration less than 100 μM, at which point Ado becomes a substrate for hypoxanthine production, FIG. 5; for 2,3-DPG levels: first two weeks of storage, FIG. 2; for ATP production: first week of storage, FIG. 3; for oxidized glutathione levels / reduced glutathione levels: supplemented conditions, FIG. 4; for glycolytic activity as measured by the lactate-to-glucose ratio: RBC-AS-3 suspension stored at 4° C., Ado 0.1-100 μM or S1P 1-10 μM or both, versus unsupplemented storage, FIG. 1
Protocol: RBC Storage: To ensure sterility, all storage conditions were set up and subsequently sampled in a biosafety cabinet. The RBC-AS-3 suspension was carefully removed from the bag into 3 ml aliquots inside 15 ml conical tubes. Stock concentrations (formulated in house-made AS-3) of ^13C5-Ado or d7-S1P were diluted to final concentrations of 0.1, 1, 10, and 100 μM for Ado or 1, 5, and 10 μM for S1P. Also included was a storage condition consisting of 10 Ado+5 μM S1P. […] The tubes were gently mixed and placed at 4° C. for storage. On days 2, 8, 11, 15, 22, 29, and 43, the tubes were placed back in a biosafety cabinet and 300 μl were sampled. The tubes were placed back at 4° C., and the samples were centrifuged for 10 minutes at 1500 g, 4° C. Supernatants were separated from cells and frozen until analysis (1st analysis after day 22 sampling). LC-MS Metabolomics: Metabolomics analyses were performed as previously described (Nemkov et al. (2015) Amino Acids doi:10.1007/s00726-015-2019-9; Nemkov et al. (2017) Rapid Commun. Mass Spectrom. 31, 663-673). Briefly, samples were placed on ice and diluted with 9 volumes of methanol:acetonitrile:water (5:3:2, v:v) for RBC, or with 24 volumes of methanol:acetonitrile:water (5:3:2, v:v) for supernatants. Suspensions were vortexed continuously for 30 min at 4° C. Insoluble material was removed by centrifugation at 18,000 g for 10 min at 4° C. and supernatants were isolated for metabolomics analysis by UHPLC-MS. The analytical platform employed a Vanquish UHPLC system (Thermo Fisher Scientific, San Jose, Calif., USA) coupled online to a Q Exactive mass spectrometer (Thermo Fisher Scientific, San Jose, Calif., USA). Samples were resolved over a Kinetex C18 column, 2.1×150 mm, 1.7 μm particle size (Phenomenex, Torrance, Calif., USA) equipped with a guard column (SecurityGuard™ Ultracartridge—UHPLC C18 for 2.1 mm ID Columns—AJO-8782—Phenomenex, Torrance, Calif., USA) using an aqueous phase (A) of water and 0.1% formic acid and a mobile phase (B) of acetonitrile and 0.1% formic acid for positive ion polarity mode, or an aqueous phase (A) of 5% acetonitrile and 1 mM ammonium acetate in water and a mobile phase (B) of 95% acetonitrile and 1 mM ammonium acetate in water for negative ion polarity mode. Samples were eluted from the column using a gradient from 5% to 95% B over 1.6 minutes, followed by an isocratic hold at 95% B for 1.65 minutes, flowed at 450 μl/min and 40° C. The Q Exactive mass spectrometer (Thermo Fisher Scientific, San Jose, Calif., USA) was operated independently in positive or negative ion mode, scanning in Full MS mode (2 μscans) from 60 to 900 m/z at 70,000 resolution, with 4 kV spray voltage, 15 shealth gas, 5 auxiliary gas. Calibration was performed prior to analysis using the Pierce™ Positive and Negative Ion Calibration Solutions (Thermo Fisher Scientific). Acquired data was then converted from .raw to .mzXML file format using Mass Matrix (Cleveland, Ohio, USA). Samples were analyzed in randomized order with a technical mixture injected after every 15 samples to qualify instrument performance. Metabolite assignments, isotopologue distributions, and correction for expected natural abundances of deuterium, ^13C, and ^15N isotopes were performed using MAVEN (Princeton, N.J., USA). The Q Exactive mass spectrometer (Thermo Fisher Scientific, San Jose, Calif., USA) was operated independently in positive or negative ion mode, scanning in Full MS mode (2 μscans) from 60 to 900 m/z at 70,000 resolution, with 4 kV spray voltage, 15 shealth gas, 5 auxiliary gas. Calibration was performed prior to analysis using the Pierce™ Positive and Negative Ion Calibration Solutions (Thermo Fisher Scientific). Acquired data was then converted from .raw to .mzXML file format using Mass Matrix (Cleveland, Ohio, USA). […] Importantly, the use of a standard processed blood unit is an improvement over previous experiments as this material directly represents a realistic storage strategy.

SMILES: Nc1ncnc2c1ncn2[C@@H]1O[C@H](CO)[C@@H](O)[C@H]1O [Ado, adenosine]
- levels of phosphate-conjugated carbohydrates and adenylates in supernatants (indicative of hemolysis) [1]: significantly lower
- amount of hypoxanthine in RBC and supernatants [2]: markedly decreased
- 2,3-DPG levels [2]: higher 2,3-DPG levels through the first two weeks of storage
- ATP production [2]: improved ATP production through the first week of storage
- oxidized glutathione levels [2]: lower
- reduced glutathione levels [2]: increased
- glycolytic activity as measured by the lactate-to-glucose ratio [2]: higher glycolytic activity

SMILES: CCCCCCCCCCCCC/C=C/[C@@H](O)[C@@H](N)COP(=O)(O)O [S1P, sphingosine 1-phosphate]
- levels of phosphate-conjugated carbohydrates and adenylates in supernatants (indicative of hemolysis) [1]: significantly lower
- amount of hypoxanthine in RBC and supernatants [2]: markedly decreased
- 2,3-DPG levels [2]: higher 2,3-DPG levels through the first two weeks of storage
- ATP production [2]: improved ATP production through the first week of storage
- oxidized glutathione levels [2]: lower
- reduced glutathione levels [2]: increased
- glycolytic activity as measured by the lactate-to-glucose ratio [2]: higher glycolytic activity
